For test [1], the system named is respiratory syncytial virus (RSV) eye infection. It is filed as in vivo. Conditions: topical 60 ng/eye once daily, 14 days.
Procedure: A mouse model of respiratory syncytial virus (RSV) eye infection is used to test the effects of ocular application of DP2 receptor antagonist compound on RSV-induced ocular immunopathology (Bitko V, et al., J. Virol. 2007; 81(2):783-90; Bitko V, et al., Nat. Med. 2005; 11(1):50-5). Each mouse eye is topically treated with 60 ng DP2 receptor antagonist compound or vehicle (sterile saline) in a volume of 2 μl. The DP2 receptor antagonist compound is instilled 40 min after virus inoculum and then once daily over the entire duration of the protocol (14 days).
Instillation of virus and inhibitor in the eye. Female BALB/c mice, 6 to 8 weeks old, are purchased from Charles River Laboratories. […]
Ocular pathology. Ocular disease is evaluated with a slit lamp biomicroscope (Bitko V, et al., J. Virol. 2007; 81(2):783-90)15; Girgis et al., Invest. […] Pathology is scored on a scale of 0 to 5 as follows: 0=clear eye; 1=slight redness in the corners; 2=moderate redness and injection; 3=conjunctival and corneal injection with ciliary flush; 4=extensive injection, generally associated with some mucus; 5=most extensive injection, associated with mucus. Eyes are examined in a coded fashion with the reader unaware of the treatment given. The presence of gummy residue or mucin in the eyes is recorded. […]
In test [2] the test system is mouse model of ragweed-induced allergic conjunctivitis. The test can be described thus: Mouse ragweed allergic conjunctivitis. It is filed as in vivo. As to conditions: topical 0.3% in PBS, three times daily, days 9-15, FIG. 5. How it is done:
A mouse model of ragweed-induced allergic conjunctivitis was used to test the efficacy of topical administration of a DP2 receptor antagonist to the eye on the development of allergic conjunctivitis. Compound 2 was evaluated in a mouse model of ocular allergy. In this model, a systemic sensitization with an allergen (Short Ragweed, SRW) was followed by topical challenge with the same allergen. For sensitization a suspension of 50 μg of short ragweed allergen (SRW, Greer, Lenoir, NC, USA) 25 μl of Aluminum Hydroxide (13 mg/ml, Sigma Aldrich) was injected into both hind rear footpads (Day 0). On days 9 through 15, topical treatment with compound 2 (0.3% in PBS), positive control (Prednisolone Acetate 1% in hypromellose), or vehicle control (PBS) was administered three times daily. Mice were dosed topically to the central cornea using a calibrated micropipette, with a 5 μL drop of treatment in each eye. On days 13 through 15 mice were challenged with topical doses of 1000 μg SRW suspension in 5 μl PBS in each eye. SRW was prepared fresh daily, and used within 3 hours of mixing, and mixed well before administration to ensure homogeneity. Thirty minutes after the final challenge (Day 15) clinical signs (discharge, lid swelling hyperemia, chemosis, and squinting) were evaluated using the aid of a dissecting microscope. A cumulative score was also recorded including all parameters measured with the exception of squinting.

The test system of test [3] is guinea pig model of allergic conjunctivitis. The test can be described thus: Guinea pig model of allergic conjunctivitis (ovalbumin). The class given is in vivo, Hartley Guinea pigs. How it is done: A guinea pig model of allergic conjunctivitis is used to test the effect of topical administration of a DP2 receptor antagonist to the eye on the development of allergic conjunctivitis. Male Hartley Guinea pigs ages 4-8 weeks (300-500 grams) at the beginning of the experiment were sensitized by intraperitoneal injection of ovalbumin [0.5 ml of a 100 μg/ml solution in Imject Alum. An additional 0.5 ml of the ovalbumin (OVA) solution is injected subcutaneous in the proximity of the lymph nodes (Muise et al., 2002). Twenty one days after sensitization, guinea pigs received an ocular challenge. Briefly, animals were secured within a towel and placed in a lateral recumbent position. Ten microliters of saline or OVA (2.5% in Saline) was topically applied to each eye, followed by 2-3 manually forced blinks. This procedure is repeated again on day 23. Clinical scoring of redness (using a scale of 0-3), edema (using a scale of 0-3) and discharge (using a scale of 0-4) were evaluated 90 minutes after challenge on day 23. The itch/scratch response was observed and recorded (using a scale of 0-3) for the first 30 minutes after challenge on day 23. The DP2 receptor antagonist (compound 2; {2′-[(N-cyclopropanecarbonyl-N-ethyl-amino)-methyl]-6-methoxy-4′-trifluoromethyl-biphenyl-3-yl}-acetic acid) was administered on days 21-23 by topical application using the procedure described above in a concentration of 300 ng/eye in PBS vehicle. Oral administration was also evaluated by gavage of compound 2 (10 mg/kg) prepared in 0.5% Methylcellulose or water. The means±standard error of the mean were plotted and analyzed by one-way ANOVA using Graphpad Prizm.

The mark [4] stands for this setting: scored 30 min after final challenge (Day 15).
[5] abbreviates: topical 300 ng/eye in PBS, days 21-23, scored 90 minutes after challenge on day 23, FIG. 3.

Each structure is given as a SMILES string.

As for `CCN(Cc1cc(C(F)(F)F)ccc1-c1cc(CC(=O)O)ccc1OC)C(=O)C1CC1` [compound 2, {2′-[(N-cyclopropanecarbonyl-N-ethyl-amino)-methyl]-6-methoxy-4′-trifluoromethyl-biphenyl-3-yl}-acetic acid], in test [1] (FIG. 4 (A)), the RSV eye pathology result was “reduced”. In test [1] (FIG. 4 (B)), the “eye IL4 induction” value is recorded as “reduced”. The cumulative clinical score entry in test [2] (all parameters except squinting) is on record as “significantly reduced”. Besides, in test [2] (setting [4]), the chemosis entry was “significantly reduced”, the discharge entry was “significantly reduced” and the lid swelling result is given as “significantly reduced”. In test [3] (oral gavage 10 mg/kg), the “any endpoint (redness, edema, discharge, itch/scratch, clinical score)” value is on record as “failed to impact any endpoint”. Further, the cummulative clinical score entry in test [3] (topical 300 ng/eye in PBS, days 21-23, after ocular antigen challenge, FIG. 3) is “significantly reduced”. Also, the itch/scratch response result in test [3] (topical 300 ng/eye in PBS, days 21-23, first 30 minutes after challenge on day 23, FIG. 3) was “trend toward reduction”. Further, in test [3] (setting [5]), the Ocular edema entry was “trend toward reduction”, the discharge entry is “significantly reduced” and the redness entry is on record as “significantly reduced”.

Source of the values: patent US8785393B2, “Ophthalmic pharmaceutical compositions of DP2 receptor antagonists” (Panmira Pharmaceuticals, LLC, priority 2009, dated 2014).
